Experimental data from patent US12564584B2, “Amorphous cabozantinib particles and uses thereof” (Flex Pharma, LLC, priority 2020, dated 2026).

Experiments:
[1] = cited from earlier work
[2] = Water content by Karl Fischer coulometric titration; format: physicochemical; conditions: after preparation
Method: Water content was determined by Karl Fischer coulometric titration method, using a Mettler Toledo C30S Karl Fischer with Stromboli Oven Sampler. Approximately 40-50 mg of ASD powder was weighed into a glass Stromboli sample vial and the vial was immediately sealed with a foil coated vial cover, and a rubber vial cap cover was placed on top of the sample vial. The vial was then placed onto instrument and analysis was conducted using nitrogen carrier gas. Instrument details and measurement conditions are specified in Table 4.

[3] = Total related substances by HPLC; format: physicochemical
Method: (§1) Total related substances was determined by HPLC using a Waters Acquity H-Class UPLC instrument utilizing a Waters Acquity BEH C18, 2.1×50 mm, 1.7 μm column. Sample solutions of each ASD were prepared by accurately weighing ASD powder into a volumetric flask, and diluted in 1:1:1 methanol:ethanol:water. The final concentration of the analyte (cabozantinib) in the sample was approximately 0.2 mg/ml.
Individual related substances were calculated as peak area percent. Total related substances is calculated as the sum of all detected individual related substances.
(§2) Assay values and total related substances were determined for the ASDs after preparation (t=0) and at the designated stability timepoints using an appropriate HPLC method (as described in Example 1). The reported assay values have been corrected for water content (determined by Karl Fischer coulometric titration method).

[4] = Assay by HPLC (corrected for water content); format: physicochemical
Method: as §1, §2

[5] = cited from earlier work; remark: listed apart in the source
[6] = system: MET, VEGFR-1, -2 and -3, AXL, RET, ROS1, TYRO3, MER, KIT, TRKB, FLT-3, and TIE-2; conditions: FLT-3, TIE-2; cited from earlier work

Row | SMILES | solubility in aqueous media [1] | Water Content (% water) [2] | Total Related Substances ([3]; 40° C./protected, 1 month) | Total Related Substances ([3]; 40° C./protected, 2 months) | Total Related Substances ([3]; 40° C./protected, 3 months) | Total Related Substances (% Area) ([3]; after preparation) | Total Related Substances ([3]; t = 0) | Assay ([4]; 40° C./protected, 1 month) | Assay ([4]; 40° C./protected, 2 months) | Assay ([4]; 40° C./protected, 3 months) | Assay ([4]; t = 0) | protein bound in human plasma [5] | inhibition of tyrosine kinase activity [6]
1 | COc1cc2nccc(Oc3ccc(NC(=O)C4(C(=O)Nc5ccc(F)cc5)CC4)cc3)c2cc1OC.O=C(O)C[C@H](O)C(=O)O [Cabozantinib (S)-malate salt] | practically insoluble |  |  |  |  |  |  |  |  |  |  |  | 
2 | COc1cc2nccc(Oc3ccc(NC(=O)C4(C(=O)Nc5ccc(F)cc5)CC4)cc3)c2cc1OC.O=C(O)C[C@H](O)C(=O)O [Cabozantinib (free base), N-(4-(6,7-dimethoxyquinolin-4-yloxy)phenyl)-N′-(4-fluorophenyl)cyclopropane-1,1-dicarboxamide, (2S)-hydroxybutanedioate] |  | 0.75 % water | 0.52% | 0.44% | 0.38% | 0.44 % Area | 0.44% | 99.9% | 99.6% | 99.0% | 99.2% | ≥ 99.7% | inhibits
